Series [1] relates to patients with Peripheral vertigo. The series is described as follows: Same clinical trial: composite score of vegetative concomitant symptoms (nausea, vomiting, sweating, tachycardia), 5-point VAS. The format is in vivo, human. The text has this:
(§1) The current study was designed as an open label, two-treatment arm, active comparator controlled, Clinical trial in patients with Peripheral vertigo. This study involved a screening phase, randomization and treatment phase as mentioned below: • Screening phase (Visit 1): −14 to −1 day • Baseline visit and day of randomization (Visit 2): Day 0/1 • Treatment phase: Day 1 to Day 28 • End of treatment (Visit 4): Day 29±2 days
(§2) Patients with Peripheral vertigo, meeting the mentioned eligibility criteria were identified and shortlisted patients underwent screening within 14 days prior to randomization. A total of 16 patients were randomized in the ratio of 3:1 to receive the test and active comparator products (12 patients received test product and 4 patients received active comparator product). Test product was consumed as 20 mg Levocloperastine orally three times a day for 28 days. Active comparator (standard of care) was consumed by the patients as per the investigator's sole discretion and medical judgement. The standard of care treatment included Betahistine 16 mg tablets three times daily OR Betahistine 16 mg tablets three times daily plus Acetazolamide 125 mg tablets two time daily OR Cinnarizine 25 mg tablets three times daily which was given to patient.
Additionally, mean change in composite score of vegetative concomitant symptoms from baseline score was compared between two treatment arms. The absolute data and mean changes from baseline data are presented below in Table 2.

For series [2] the following is noted: doses up to 450-fold higher than the therapeutic doses; cited from earlier work.
For series [3], the system named is patients with Peripheral vertigo. The series is described as follows: Same clinical trial: tolerability. It counts as in vivo, human. Conditions: 20 mg orally three times a day for 28 days.
From the text: as §1, §2

Series [4] has the same test system. Kind of series: Open label, active comparator controlled clinical trial: MVS score (severity of vertigo symptoms). The format is in vivo, human.
From the text: The MVS score, a 12-item composite score to measure the severity of vertigo symptoms, is defined as the mean intensity of 6 (unprovoked) vertigo symptoms (dysstasia and walking unsteadiness, staggering, rotary sensation, tendency to fall, lift sensation, blackout) and vertigo in consequence of 6 triggering factors [change of position (lying), bowing, getting up, driving by car/train, head movements (inclination, twist), eye movement]. The intensity of each of the 12 single symptoms is rated by the patients by means of a 5-point VAS (0=not present, 1=moderate, 2=medium, 3=strong, 4=very strong). A mean MVS serving as a measure of vertigo intensity, will be calculated by adding the scores on all 12 vertigo symptoms and dividing by 12. The scale is rated by patients directly.
as §1, §2
MVS Score: Mean change in MVS score from baseline score was compared between two treatment arms.

The mark [5] stands for this setting: 20 mg orally three times a day for 28 days.
[6] abbreviates: 7 days after treatment onset [Interim visit: Day 7 + 3].
Setting [7] is: 28 days after treatment onset [end of treatment: Day 29 ± 2].

Molecules are shown by their SMILES.

Turning to `Clc1ccc([C@@H](OCCN2CCCCC2)c2ccccc2)cc1` (racemic) [Levocloperastine], the “Alleviation of vegetative concomitant symptoms versus standard of care” value in series [1] (setting [5]) is reported as “statistically better in alleviating the vegetative concomitant symptoms than the standard of care treatment”. Also, the “Score of vegetative concomitant symptoms, Absolute data, Mean ± SD” value in series [1] (setting [6]) is reported as 0.6 ± 0.73; in series [1] (setting [7]) it was 0.2 ± 0.47; in series [1] (Baseline) it was 1.3 ± 1.05. In addition, the figures for the “Score of vegetative concomitant symptoms, Change as %” value in series [1] (setting [6]) and in series [1] (setting [7]) were −46.15% and −84.62%, respectively. Besides, the “Score of vegetative concomitant symptoms, Change from baseline, Mean ± SD” value is reported as −0.6 ± 0.81 in series [1] (setting [6]) and −1.1 ± 0.98 in series [1] (setting [7]). Besides, the “Duration of treatment for comparable improvement in vegetative concomitant symptoms severity” value in series [1] (human, in vivo) is “about 7 days”. Besides, the Sedation entry in series [2] is “did not induce any clinically relevant sedation”. The Tolerability result in series [3] was “well tolerability in all patients”. Also, the “Efficacy on primary efficacy endpoint MVS score versus standard of care” value in series [4] (setting [5]) is on record as “equally efficacious in comparison to standard of care treatment”. For the same compound, the “MVS Score, Change from baseline, Mean ± SD” value in series [4] (A/28 Days [Day 29 ± 2]) is on record as −1.1 ± 0.45; in series [4] (Interim visit [Day 7 + 3]) it was −0.7 ± 0.33. Moreover, the “MVS Score, Mean ± SD” value in series [4] (A/28 Days [Day 29 ± 2]) is recorded as 1.1 ± 0.58; in series [4] (Baseline (Day 0/1)), 2.2 ± 0.29; in series [4] (Interim visit [Day 7 + 3]), 1.5 ± 0.49. Further, the “MVS Score, Change as %” value was −50.00% in series [4] (A/28 Days [Day 29 ± 2] vs baseline) and -31.8% in series [4] (Interim visit [Day 7 + 3] vs baseline).

These data come from patent US12685728B2, “Anti-vertigo compound and pharmaceutical compositions thereof” (Amneal Pharmaceuticals LLC, priority 2020, dated 2026).
